{"source": "patent US20210308211A1", "about": "“METHOD OF TREATING VIRAL INFECTIONS” (priority 2020, published 2021)", "tested_on": "Balb/c mice", "assay": "15-day ovalbumin-induced airway hypereosinophilia model, BAL cell counts", "assay_type": "in vivo, mouse", "conditions": "for B cells / Eosinophils / Macrophages / Neutrophils / T cells / Total cells: per mouse", "protocol": "The anti-inflammatory effect of the P140 phosphopeptide was evaluated when administered locally (intranasally) or systemically (intravenously) in a 15-day model of hypereosinophilic airway inflammation in mice.\nThe P140 phosphopeptide was solubilized in sterile water (Braun) and 10× concentrate sterile saline was added to adjust osmolarity to 300 mosm. Osmolarity was controlled with a micro osmometer (Löser, type 15) and validated (302 mosm).\nThe P140 phosphopeptide was used in vivo at the dose of 4 mg/kg by intranasal (i.n.) and intravenous (i.v.) routes. Control animals received equivalent volumes (1 ml/kg for i.n. and 2 ml/kg for i.v.) of saline (Table 6).\nNine-week-old male Balb/c mice were sensitized by intraperitoneal (i.p.) injections of a mixture containing 50 μg OVA (Sigma-Aldrich) and 2 mg alum (Sigma-Aldrich) in 0.1 ml saline. Mice were challenged by i.n. administration of 25 μl of OVA on day 5, then 25 μl of OVA and/or saline on day 12, 13 and 14. Mice were treated by i.v. injection (2 ml/kg) or i.n. administration (1 ml/kg) of P140 or solvent on day 9 (See FIG. 9).\nBAL was performed twenty-four hours after […] challenge as described (Daubeuf, F. and Frossard, N. 2012. Performing Bronchoalveolar Lavage in the Mouse. Curr Protoc Mouse Biol 2:167-175). Mice were anaesthetized IP (Ketamine 150 mg/kg—Xylasine 10 mg/kg). Blood was collected from the heart, centrifuged at 10,000 g for 2 min and serum stored at −20° C. After semi-excision of the trachea, a plastic cannula was inserted, and airspace washed with 0.5 ml of 0.9% NaCl injected with a 1 ml syringe. This procedure was performed 10 times. The initial concentrated supernatant of the 2 first lavages (volume=2×0.5 ml administered, ˜0.5 ml recovered) was collected for cytokine measurements. The remaining BAL fluid was centrifuged (300 g for 5 min, 4° C.), and cell pellets pooled. The cell pellet was suspended in 500 μl of 0.9% NaCl and used for total cell counts evaluated on a Muse® Cell Analyser. Differential cell counts were assessed by flow cytometry (LSRII® cytometer, BD Bioscience). BAL cells were added with FCblock (0.5 μl, 553142, BD Bioscience) in a black microplate, incubated for 20 min at room temperature. Then, marker antibodies were added: CD11c-FITC (557400, BD bioscience), Gr-1-Pe-eFluor610 (61-5931-82, eBioscience), CD11b-APC-Cy7 (557657, BD bioscience), CD45-AlexaFluor700 (103128, BioLegend), CD3-BV605 (564009, BD bioscience), CD19-PE-Cy7 (552854, BD bioscience). Antibodies were incubated with BAL cells for 30 min at room temperature before DAPI (5 μl, BD bioscience) addition, and flow cytometry was performed immediately.\nData are presented as means±SEM. Differences between groups were tested for statistical significance using one-way ANOVA followed by Tukey's post-test. For statistical analysis, control groups 1, 2 and 3 were pooled.", "key": {"[1]": {"conditions": "BAL, P140-IN (i.n. 4 mg/kg, day 9), OVA challenge"}, "[2]": {"conditions": "BAL, P140-IN (i.n. 4 mg/kg, day 9), saline challenge"}, "[3]": {"conditions": "BAL, P140-IV (i.v. 4 mg/kg, day 9), OVA challenge"}, "[4]": {"conditions": "BAL, P140-IV (i.v. 4 mg/kg, day 9), saline challenge"}}, "note": "Values joined by “and” are separate entries in the source; they are usually repeats but may differ in a detail not shown here. Equal values may be shown once. “Also recorded” adds a separate entry of the source. Non-standard residues stand in square brackets, D forms with d. Residues, ends and D or L forms follow the SMILES beside them. pS = N[C@@H](COP(=O)(O)O)C(=O)O"}
{"smiles": "CC[C@H](C)[C@H](NC(=O)[C@H](Cc1ccccc1)NC(=O)[C@H](C)NC(=O)[C@H](Cc1ccc(O)cc1)NC(=O)CNC(=O)[C@H](CCCNC(=N)N)NC(=O)[C@@H]1CCCN1C(=O)[C@H](CCCCN)NC(=O)CNC(=O)[C@H](COP(=O)(O)O)NC(=O)[C@H](CCCNC(=N)N)NC(=O)[C@H](CCCCN)NC(=O)[C@H](CO)NC(=O)[C@H](Cc1ccc(O)cc1)NC(=O)[C@@H](NC(=O)[C@H](CCSC)NC(=O)[C@H](Cc1c[nH]cn1)NC(=O)[C@@H](NC(=O)[C@@H](N)CCCNC(=N)N)[C@@H](C)CC)C(C)C)C(=O)N[C@@H](CCC(=O)O)C(=O)N[C@@H](Cc1ccc(O)cc1)C(=O)O", "note": "[Compound P140] (H-RIHMVYSKR[pS]GKPRGYAFIEY-OH; N-terminus and C-terminus assumed)", "values": [{"measurement": "B cells", "setting": "[1]", "result": "25606 and 32251 and 26562 and 23383 and 33156 and 13236"}, {"measurement": "Eosinophils", "setting": "[1]", "result": "490306 and 497948 and 737671 and 839841 and 792249 and 615171"}, {"measurement": "Macrophages", "setting": "[1]", "result": "271110 and 322340 and 247391 and 538954 and 436210 and 286509"}, {"measurement": "Neutrophils", "setting": "[1]", "result": "57542 and 60787 and 62354 and 95173 and 47346 and 65366"}, {"measurement": "T cells", "setting": "[1]", "result": "44036 and 61800 and 73159 and 118360 and 101951 and 61293"}, {"measurement": "Total cells", "setting": "[1]", "result": "862995 and 942875 and 1120576 and 1592328 and 1377755 and 1028339"}, {"measurement": "B cells", "setting": "[2]", "result": "112 and 242"}, {"measurement": "Eosinophils", "setting": "[2]", "result": "168 and 103"}, {"measurement": "Macrophages", "setting": "[2]", "result": "388102 and 434029"}, {"measurement": "Neutrophils", "setting": "[2]", "result": "56 and 61"}, {"measurement": "T cells", "setting": "[2]", "result": "4135 and 4180"}, {"measurement": "Total cells", "setting": "[2]", "result": "392461 and 438573"}, {"measurement": "B cells", "setting": "[3]", "result": "10219 and 15209 and 14027 and 17417 and 11003 and 10922"}, {"measurement": "Eosinophils", "setting": "[3]", "result": "425928 and 272763 and 473105 and 470027 and 327186 and 429469"}, {"measurement": "Macrophages", "setting": "[3]", "result": "439265 and 442055 and 244523 and 293070 and 342134 and 379565"}, {"measurement": "Neutrophils", "setting": "[3]", "result": "42783 and 21442 and 59616 and 76867 and 40275 and 31756"}, {"measurement": "T cells", "setting": "[3]", "result": "41744 and 43881 and 32677 and 55502 and 28857 and 45030"}, {"measurement": "Total cells", "setting": "[3]", "result": "949720 and 780142 and 809921 and 895467 and 738452 and 885821"}, {"measurement": "B cells", "setting": "[4]", "result": "70 and 266"}, {"measurement": "Eosinophils", "setting": "[4]", "result": "110 and 166"}, {"measurement": "Macrophages", "setting": "[4]", "result": "335658 and 335200"}, {"measurement": "Neutrophils", "setting": "[4]", "result": "259 and 133"}, {"measurement": "T cells", "setting": "[4]", "result": "5311 and 4790"}, {"measurement": "Total cells", "setting": "[4]", "result": "341738 and 340389"}, {"measurement": "Number of cells recovered in BAL fluid as compared to vehicle", "setting": "control mice challenged with saline, i.n. or i.v.", "result": "little effect"}, {"measurement": "Inflammatory cell recruitment in BAL (in words)", "setting": "i.n. route, 4 mg/kg, OVA challenge", "result": "little effect; also recorded: without substantial effect"}, {"measurement": "Neutrophils recruitment, change vs OVA group", "setting": "i.v. 4 mg/kg, OVA challenge, BAL, not significant", "result": "−38", "unit": "%"}, {"measurement": "Eosinophil recruitment, change vs OVA group", "setting": "i.v. 4 mg/kg, OVA challenge, BAL, p<0.001", "result": "−50", "unit": "%"}, {"measurement": "T cells recruitment, change vs OVA group", "setting": "i.v. 4 mg/kg, OVA challenge, BAL, p<0.01", "result": "−66", "unit": "%"}, {"measurement": "B cells recruitment, change vs OVA group", "setting": "i.v. 4 mg/kg, OVA challenge, BAL, p<0.05", "result": "−42", "unit": "%"}, {"measurement": "Anti-inflammatory effect (in words)", "setting": "i.v. administration 4 mg/kg, OVA challenge", "result": "shows anti-inflammatory effect"}]}
